Literature values in patent US10765633B2, “Formulation comprising liposomes” (Eisai R&D Management Co., Ltd., priority 2018, dated 2020).

Test system: HDL
Settings: binding of eritoran to HDL

CCCCCC/C=C\CCCCCCCCCC(=O)N[C@H]1[C@H](OC[C@H]2O[C@H](OP(=O)(O)O)[C@H](NC(=O)CC(=O)CCCCCCCCCCC)[C@@H](OCCCCCCCCCC)[C@@H]2O)O[C@H](COC)[C@@H](OP(=O)(O)O)[C@@H]1OCC[C@@H](CCCCCCC)OC [eritoran, Eritoran]
effect of binding to HDL on drug activity: time-dependent loss of drug activity
